Experimental data as given in patent US20130121994A1, “TRIAZOLOPYRIDINE DERIVATIVES” (BAYER INTELLECTUAL PROPERTY GMBH, priority 2009, published 2013).

Each molecule was assayed against T1, human kinase Mps-1 (Homo sapiens, UniProt P33981) (assay: Mps-1 kinase assay (HTRF)).
T1 construct: N-terminally GST-tagged human full length recombinant Mps-1 kinase; GST (N); purchased Invitrogen, Karslruhe, Germany PV4071
T1 sequence (P33981 1-857): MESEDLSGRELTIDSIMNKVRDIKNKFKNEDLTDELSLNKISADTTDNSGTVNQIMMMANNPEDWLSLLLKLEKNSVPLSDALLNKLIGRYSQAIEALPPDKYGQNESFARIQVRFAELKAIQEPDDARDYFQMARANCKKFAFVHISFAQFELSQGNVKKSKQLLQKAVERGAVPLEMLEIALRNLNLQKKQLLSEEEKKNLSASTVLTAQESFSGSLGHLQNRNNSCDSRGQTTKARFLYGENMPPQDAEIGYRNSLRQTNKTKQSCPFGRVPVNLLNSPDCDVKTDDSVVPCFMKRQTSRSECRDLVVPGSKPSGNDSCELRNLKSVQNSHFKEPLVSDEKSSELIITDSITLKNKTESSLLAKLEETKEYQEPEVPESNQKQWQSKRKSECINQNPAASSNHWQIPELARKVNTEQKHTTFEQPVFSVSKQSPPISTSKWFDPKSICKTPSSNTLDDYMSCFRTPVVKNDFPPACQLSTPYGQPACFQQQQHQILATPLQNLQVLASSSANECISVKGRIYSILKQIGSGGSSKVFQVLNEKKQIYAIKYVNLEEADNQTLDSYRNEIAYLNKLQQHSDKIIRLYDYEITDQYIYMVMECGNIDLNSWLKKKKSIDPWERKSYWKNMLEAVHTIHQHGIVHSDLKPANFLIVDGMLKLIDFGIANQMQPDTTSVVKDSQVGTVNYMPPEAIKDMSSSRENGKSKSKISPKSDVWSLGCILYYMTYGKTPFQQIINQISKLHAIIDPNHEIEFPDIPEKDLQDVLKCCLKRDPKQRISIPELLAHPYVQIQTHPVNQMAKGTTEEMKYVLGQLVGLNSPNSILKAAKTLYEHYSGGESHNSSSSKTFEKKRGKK
Assay type: biochemical
Experimental: The human kinase Mps-1 phosphorylates a biotinylated substrate peptide. Detection of the phosphorylated product is achieved by homogenous time-resolved fluorescence resonance energy transfer (HTRF) from Europium-labelled anti-phospho-Serine/Threonine antibody as donor to streptavidin labelled with cross-linked allophycocyanin (SA-XLent) as acceptor. Compounds are tested for their inhibition of the kinase activity.
N-terminally GST-tagged human full length recombinant Mps-1 kinase (purchased from Invitrogen, Karslruhe, Germany, cat. no PV4071) was used. As substrate for the kinase reaction a biotinylated peptide of the amino-acid sequence […] (C-terminus in amide form, purchased from Biosynthan GmbH, Berlin) was used.
The concentration of Mps-1 in the assay was adjusted to the activity of the enzyme lot and was chosen appropriate to have the assay in the linear range, typical enzyme concentrations were in the range of about 1 nM (final conc. in the 5 μl assay volume).
The resulting mixture was incubated 1 h at 22° C. to allow the binding of the phosphorylated peptide to the anti-phospho(Ser/Thr)-Europium-antibody. Subsequently the amount of phosphorylated substrate was evaluated by measurement of the resonance energy transfer from the Europium-labelled anti-phospho(Ser/Thr) antibody to the Streptavidin-XLent.

In order of rising IC50:
1. COC(C)CNC(=O)c1cccc(-c2ccc3nc(Nc4ccccc4C#N)nn3c2)c1 (racemic) [Example 11.053, rac-3-{2-[(2-cyanophenyl)amino][1,2,4]triazolo[1,5-a]pyridin-6-yl}-N-(2-methoxypropyl)benzamide]  6.72 nM
2. COc1cc(C#N)ccc1Nc1nc2ccc(-c3cc(C)c(O)c(C)c3)cn2n1 [Example 1.1, 4-{[6-(4-hydroxy-3,5-dimethylphenyl)[1,2,4]triazolo[1,5-a]pyridin-2-yl]amino}-3-methoxybenzonitrile]  17 nM
3. CNC(=O)c1ccc(Nc2nc3ccc(-c4cc(C)c(O)c(C)c4)cn3n2)cc1 [Example 1.15, 4-{[6-(4-hydroxy-3,5-dimethylphenyl)[1,2,4]triazolo[1,5-a]pyridin-2-yl]amino}-N-methylbenzamide]  23 nM
4. CNC(=O)c1ccc(-c2ccc3nc(Nc4ccccc4C#N)nn3c2)cc1 [Example 3.10, 4-{2-[(2-cyanophenyl)amino] [1,2,4]triazolo[1,5-a]pyridin-6-yl}-N-methylbenzamide]  24 nM
5. N#Cc1ccccc1Nc1nc2ccc(-c3cccc(CO)c3)cn2n1 [Example 3.2, 2-({6-[3-(hydroxymethyl)phen-yl][1,2,4]triazolo[1,5-a]pyridin-2-yl}amino)benzonitrile]  52 nM
6. CCOc1ccccc1Nc1nc2ccc(-c3cc(C)c(O)c(C)c3)cn2n1 [Example 1.12, 4-{2-[(2-ethoxyphenyl)amino] [1,2,4]triazolo[1,5-a]pyridin-6-yl}-2,6-dimethylphenol]  92 nM
7. N#Cc1ccccc1Nc1nc2ccc(-c3cccc(C(N)=O)c3)cn2n1 [Example 3.8, 3-{2-[(2-cyanophenyl)amino] [1,2,4]triazolo[1,5-a]pyridin-6-yl}benzamide]  110 nM
8. CCOc1ccccc1Nc1nc2ccc(-c3cccc(NC(C)=O)c3)cn2n1 [Example 2.10, N-(3-{2-[(2-ethoxyphenyl)amino] [1,2,4]triazolo[1,5-a]pyridin-6-yl}phenyl)acetamide]  130 nM
9. Cc1cc(-c2ccc3nc(Nc4ccccc4OC(F)(F)F)nn3c2)cc(C)c1O [Example 1.10, 2,6-dimethyl-4-(2-{[2-(trifluoromethoxy)phenyl]amino}[1,2,4]tri-azolo[1,5-a]pyridin-6-yl)phenol]  140 nM
10. N#Cc1ccccc1Nc1nc2ccc(-c3ccc(C(N)=O)cc3)cn2n1 [Example 3.7, 4-{2-[(2-cyanophenyl)amino] [1,2,4]triazolo[1,5-a]pyridin-6-yl}benzamide]  140 nM
11. COc1ccc(F)cc1Nc1nc2ccc(-c3cc(C)c(O)c(C)c3)cn2n1 [Example 1.6, 4-{2-[(5-fluoro-2-methoxyphenyl)amino] [1,2,4]triazolo[1,5-a]pyridin-6-yl}-2,6-dimethylphenol]  150 nM
12. COc1cccnc1Nc1nc2ccc(-c3cc(C)c(O)c(C)c3)cn2n1 [Example 1.14, 4-{2-[(3-methoxypyridin-2-yl)amino][1,2,4]tri-azolo[1,5-a]pyridin-6-yl}-2,6-dimethylphenol]  160 nM
13. COc1ccc(Nc2nc3ccc(-c4cc(C)c(O)c(C)c4)cn3n2)c(OC)c1 [Example 1.2, 4-{2-[(2,4-dimethoxyphenyl)amino] [1,2,4]triazolo[1,5-a]pyridin-6-yl}-2,6-dimethylphenol]  180 nM
14. COc1cc(C#N)ccc1Nc1nc2ccc(-c3cccc(NC(C)=O)c3)cn2n1 [Example 2.12, N-(3-{2-[(4-cyano-2-methoxyphenyl)amino] [1,2,4]triazolo[1,5-a]pyridin-6-yl}phenyl)acetamide]  200 nM
15. CS(=O)(=O)Nc1cccc(-c2ccc3nc(Nc4ccccc4C#N)nn3c2)c1 [Example 3.5, N-(3-{2-[(2-cyanophenyl)amino] [1,2,4]triazolo[1,5-a]pyridin-6-yl}phenyl)methane-sulfonamide]  240 nM
16. CCN(CC)C(=O)c1ccc(Nc2nc3ccc(-c4cc(C)c(O)c(C)c4)cn3n2)c(OC)c1 [Example 1.16, N,N-Diethyl-4-[6-(4-hydroxy-3,5-dimethyl-phenyl)-[1,2,4]triazolo[1,5-a]pyridin-2-ylamino]-3-methoxy-benzamide]  280 nM
17. Cc1cc(-c2ccc3nc(Nc4cccnc4)nn3c2)cc(C)c1O [Example 1.8, 2,6-dimethyl-4-[2-(pyridin-3-ylamino)[1,2,4]triazolo [1,5-a]pyridin-6-yl]phenol]  320 nM
18. CC(=O)Nc1cccc(-c2ccc3nc(Nc4ccccc4OC(F)(F)F)nn3c2)c1 [Example 2.6, N-[3-(2-{[2-(trifluoromethoxy)phenyl]amino}[1,2,4]tri-azolo[1,5-a]pyridin-6-yl)phenyl]acetamide]  340 nM
19. COc1ccc(F)cc1Nc1nc2ccc(-c3cccc(NC(C)=O)c3)cn2n1 [Example 2.2, N-(3-{2-[(5-fluoro-2-methoxyphenyl)amino] [1,2,4]triazolo[1,5-a]pyridin-6-yl}phenyl)acetamide]  470 nM
20. Cc1cccc(-c2ccc3nc(Nc4ccccc4C#N)nn3c2)c1 [Example 3.3, 2-{[6-(3-methylphenyl)[1,2,4]triazolo[1,5-a]pyridin-2-yl]amino}benzonitrile]  630 nM
21. COc1ccc(C#N)cc1Nc1nc2ccc(-c3cc(C)c(O)c(C)c3)cn2n1 [Example 1.13, 3-{[6-(4-hydroxy-3,5-dimethylphenyl)[1,2,4]triazolo[1,5-a]pyridin-2-yl]amino}-4-methoxybenzonitrile]  640 nM
22. Cc1cc(O)ccc1-c1ccc2nc(Nc3ccccc3C#N)nn2c1 [Example 3.9, 2-{[6-(4-hydroxy-2-methylphenyl)[1,2,4]triazolo[1,5-a]pyridin-2-yl]amino}benzonitrile]  740 nM
23. CC(=O)Nc1cccc(-c2ccc3nc(Nc4ccc(S(C)(=O)=O)cc4)nn3c2)c1 [Example 2.5, N-[3-(2-{[4-(methylsulfonyl)phen-yl]amino}[1,2,4]triazolo [1,5-a]pyridin-6-yl)phenyl]acetamide]  770 nM
24. N#Cc1ccccc1Nc1nc2ccc(-c3ccccc3)cn2n1 [Example 3.1, 2-[(6-phenyl[1,2,4]triazolo[1,5-a]pyridin-2-yl)amino]benzonitrile]  860 nM
25. N#Cc1ccccc1Nc1nc2ccc(-c3ccc4cc[nH]c4c3)cn2n1 [Example 3.6, 2-{[6-(1H-indol-6-yl)[1,2,4]triazolo[1,5-a]pyridin-2-yl]amino}benzonitrile]  940 nM
26. CC(=O)Nc1cccc(-c2ccc3nc(Nc4ccc(C#N)cc4)nn3c2)c1 [Example 2.8, N-(3-{2-[(4-cyanophenyl)amino] [1,2,4]triazolo[1,5-a]pyridin-6-yl}phenyl)acetamide]  1000 nM
27. CC(=O)Nc1cccc(-c2ccc3nc(Nc4ccc(C(C)C)cc4)nn3c2)c1 [Example 2.9, N-[3-(2-{[4-(propan-2-yl)phenyl]amino}[1,2,4]triazolo[1,5-a]pyridin-6-yl)phenyl]acetamide]  1800 nM
28. Cc1cc(-c2ccc3nc(Nc4cncnc4)nn3c2)cc(C)c1O [Example 1.4, 2,6-dimethyl-4-[2-(pyrimidin-5-ylamino)[1,2,4]triazolo [1,5-a]pyridin-6-yl]phenol]  2700 nM
29. CC(=O)Nc1cccc(-c2ccc3nc(Nc4cccnc4)nn3c2)c1 [Example 2.4, N-{3-[2-(pyridin-3-ylamino)[1,2,4]triazolo [1,5-a]pyridin-6-yl]phenyl}acetamide]  3100 nM
30. CC(=O)Nc1cccc(-c2ccc3nc(Nc4ccc(OC(F)(F)F)cc4)nn3c2)c1 [Example 2.7, N-[3-(2-{[4-(trifluoromethoxy)phenyl]amino}[1,2,4]tri-azolo[1,5-a]pyridin-6-yl)phenyl]acetamide]  3300 nM
31. COc1cccnc1Nc1nc2ccc(-c3cccc(NC(C)=O)c3)cn2n1 [Example 2.11, N-(3-{2-[(3-methoxypyridin-2-yl)amino][1,2,4]triazolo [1,5-a]pyridin-6-yl}phenyl)acetamide]  3500 nM
32. CC(=O)Nc1ccccc1-c1ccc2nc(Nc3ccccc3C#N)nn2c1 [Example 3.4, N-(2-{2-[(2-cyanophenyl)amino] [1,2,4]triazolo[1,5-a]pyridin-6-yl}phenyl)acetamide]  6100 nM
